Reference: US11767330B2, “Citrate salt, pharmaceutical compositions, and methods of making and using the same” (Foghorn Therapeutics Inc., priority 2021, dated 2023)

Key:
Format in all cases: physicochemical
[1] = Dynamic vapor sorption (DVS) hygroscopicity
Protocol: Dynamic Vapor Sorption (DVS). DVS was performed using a Q5000SA. The sample (5-15 mg) was loaded into a metallic quartz sample pan, suspended from a microbalance, and exposed to a humidified stream of nitrogen gas. Weight changes were relative to a matching empty reference pan opposite the sample, suspended from the microbalance. One of two methods was used:
Method 1: The sample was held for a minimum of 10 min at each level and only progressed to the next humidity level if there was <0.002% change in weight between measurements (interval: 5 s) or 60 min had elapsed.

[2] = Stability at 40° C./75% RH for 1 week
Protocol: The humid environment was generated with saturated sodium chloride in water in a sealed container. After one week, the sample appeared pale-yellow upon inspection.
(§1) The one-week stability at 75% RH was also tested. In this experiment, 12 mg of the dried crystalline freebase from MeOH were weighted in a 4 mL vial and placed in a 20 mL vial set at 40° C. and 75% RH for 1 week. The humid environment was generated with saturated sodium chloride in water in a sealed container.
as §1, with “the” for “the dried”, “was” for “were”

[3] = Physical stability by XRPD upon drying at 50° C. under vacuum and exposure to >95% RH
Protocol: (§2) X-Ray Powder Diffraction (XRPD). XRPD was performed using a Rigaku MiniFlex 600 in reflection mode (i.e., Bragg-Brentano geometry). Samples were prepared on Si zero-return wafers.
XRPD analysis was done in three stages. XRPD of the wet cake was done for all samples where solids were observed.
(§3) The solids were then exposed to >95% RH overnight. This humid environment was produced by placing a beaker of saturated potassium sulfate in water in a sealed container at RT. The materials exposed to these conditions were evaluated by XRPD, and their patterns were compared to those produced before.
as §3, with “The pattern FF-B was dried at 50° C. under vacuum for 3 h after filtration for further XRPD analysis. The solids” for “The solids”, “to those of the crystalline freebase along each step.” for “to those produced before.”

[4] = Solid form characterisation (TGA/DSC, KF, XRPD, HPLC chemical and chiral purity); conditions: initial, before stability test
Protocol: Differential Scanning Calorimetry (DSC). DSC was performed using a Mettler Toledo DSC^3+. The sample (1-5 mg) was weighed directly in a 40 μL hermetic aluminum pan with a pinhole and analyzed according to the parameters in Tables 41 and 42.
High Performance Liquid Chromatography (HPLC). HPLC was conducted using an Agilent 1220 Infinity LC or Agilent 1220 Infinity 2 LC equipped with diode array detector (DAD). Flow rate range of the instrument is 0.2-5.0 mL/min, operating pressure range is 0-600 bar, temperature range is 5° C. above ambient to 60° C., and wavelength range is 190-600 nm.
Karl Fischer (KF) Titration. KF titration for water determination was performed using a Mettler Toledo C20S Coulometric KF Titrator equipped with a current generator cell with a diaphragm, and a double-platinum-pin electrode. The range of detection of the instrument is 1 ppm to 5% water. Aquastar™
CombiCoulomat fritless reagent was used in both the anode and cathode compartments. Samples of approximately 0.03-0.10 g were dissolved in the anode compartment and titrated until the solution potential dropped below 100 mV. Hydranal 1 wt. % water standard was used for validation prior to sample analysis.
Simultaneous Thermogravimetric Analysis and Differential Scanning Calorimetry (TGA and DSC). TGA and DSC were performed on the same sample simultaneously using a Mettler Toledo TGA/DSC^3+. Protective and purge gas was nitrogen at a flowrate of 20-30 mL/min and 50-100 mL/min, respectively. The desired amount of sample (5-10 mg) was weighed directly in a hermetic aluminum pan with pinhole and analyzed according to the parameters below:
as §2
XRPD was performed using a Bruker D8 Advance equipped with LYNXEYE detector in reflection mode (i.e., Bragg-Brentano geometry). Samples were prepared on Si zero-return wafers.

[5] = Forced degradation study of compound S-D1 (chiral HPLC)
Protocol: Sample solution stock was prepared by weighing 501.53 mg of compound S-D1 to a 100 mL volumetric flask, dissolving by ultrasonic in 50 mL of diluent 2, diluting to volume with diluent 2, and mixing well.
Unstressed sample solution was prepared by weighing 50.83 mg of compound S-D1 into a 100 mL volumetric flask, dissolving by ultrasonic in 50 mL of diluent 2, diluting to volume with diluent 2, and mixing well.
Sample solution for pH=4.0 solution stability was prepared as follows. 50.79 mg of compound S-D1 were weighed into a 100 mL volumetric flask, dissolved by ultrasonic in 50 mL of pH=4.0 50 mM sodium citrate buffer (see above), diluted to volume with pH=4.0 50 mM sodium citrate buffer, and mixed well.
Sample solution for pH=5.0 solution stability was prepared as follows. 50.66 mg of the compound of Formula I were weighed into a 100 mL volumetric flask, dissolved by ultrasonic in 50 mL of pH=5.0 50 mM sodium citrate buffer (see above), diluted to volume with 50 mL of pH=5.0 50 mM sodium citrate buffer and mixed well.
Sample solution for pH=7.0 solution stability was prepared as follows. 50.78 mg of compound S-D1 and 680.42 mg KH2PO4 were weighed into a 100 mL volumetric flask, dissolved by ultrasonic in 50 mL of diluent 1, transferred 29.1 mL of the 0.1N NaOH (see above), diluted to volume with diluent 1, and mixed well.
(§4) Acid degradation (1N HCl at RT). 3 mL of the sample stock solution (see above) into an 8 mL vial, added 3 mL of 2N HCl solution, and mixed well. Samples were prepared in quadruplicate and kept at room temperature (RT). At the sampling time point, 1 mL of the sample was transferred into a 5 mL volumetric flask, neutralized with 0.5 mL of […], diluted to volume with diluent 2, and mixed well.
as §4, with “Basic” for “Acid”, “(0.15N NaOH” for “(1N HCl”, “0.3N NaOH” for “2N HCl”
Thermal stress degradation (50° C. for solid). Approximately 150 mg of compound S-D1 were weighed into an 8 mL vial. Multiple samples were prepared and placed in an oven at 50° C. At the sampling time points, each of the 50.57 mg, 50.84 mg, and 50.84 mg samples were transferred into their respective 100 mL volumetric flasks, dissolved by ultrasonic in 50 mL of diluent 2, diluted to volume with diluent 2, and mixed well.
Solution Stability. The study was performed according to the conditions outlined in Table 15 using sample solution for pH=4.0 solution stability, sample solution for pH=5.0 solution stability, and sample solution for pH=7.0 solution stability (see above).

[6] = Acid Hydrolysis, 1N HCl RT, 0 h
[7] = Acid Hydrolysis, 1N HCl RT, 1 d
[8] = Acid Hydrolysis, 1N HCl RT, 2 d
[9] = Acid Hydrolysis, 1N HCl RT, 3 d
[10] = Base Hydrolysis, 0.15 N NaOH RT, 0 h
[11] = Base Hydrolysis, 0.15 N NaOH RT, 1 h
[12] = Solution Stability, pH = 4.0, 50 mM Sodium citrate buffer at RT, 0 h
[13] = Solution Stability, pH = 4.0, 50 mM Sodium citrate buffer at RT, 1 d
[14] = Solution Stability, pH = 4.0, 50 mM Sodium citrate buffer at RT, 2 d
[15] = Solution Stability, pH = 4.0, 50 mM Sodium citrate buffer at RT, 3 d
[16] = Solution Stability, pH = 5.0 50 mM Sodium citrate buffer at RT, 0 h
[17] = Solution Stability, pH = 5.0 50 mM Sodium citrate buffer at RT, 1 d
[18] = Solution Stability, pH = 5.0 50 mM Sodium citrate buffer at RT, 2 d
[19] = Solution Stability, pH = 5.0 50 mM Sodium citrate buffer at RT, 3 d
[20] = Solution Stability, pH = 7.0 Phosphate buffer at RT, 0 h
[21] = Solution Stability, pH = 7.0 Phosphate buffer at RT, 1 d
[22] = Solution Stability, pH = 7.0 Phosphate buffer at RT, 2 d
[23] = Solution Stability, pH = 7.0 Phosphate buffer at RT, 3 d

With `COc1cc(-c2cn(C)c(=O)c3cnc(N4CCC4)cc23)cc(OC)c1CN1CCC(CN2CCC3(CC2)CN(c2ccc4c(c2)C(=O)N([C@@H]2CCC(=O)NC2=O)C4)C3)CC1.O=C(O)CC(O)(CC(=O)O)C(=O)O` [Citrate of Compound R-D1] the “HPLC chemical purity after DVS analysis” value [1] was 99.55%, the “XRPD after DVS analysis” value [1] was “did not show conversion to a crystalline pattern after performing the DVS analysis” and the “hygroscopicity according to the European Pharmacopeia standards (DVS)” value [1] was “very hygroscopic”. For the same compound, the “Hygroscopicity by DVS (up to 95% RH)” value ([1]; mass change up to 95% RH) was over 25.55 wt. %, the “Purity by HPLC (%) After 1 week 75% RH chemical” value ([2]; 40° C./75% RH) was 99.12% and the “XRPD pattern Dry” value ([3]; after drying, Am = amorphous) was “Am”. The “XRPD pattern Humid” value ([3]; after exposure to humidity, Am = amorphous) was “Am”, the “XRPD pattern Wet” value ([3]; solid form of compound R-D1, Am = amorphous) was “Am” and the “Purity by HPLC (%) [chiral]” value [4] was “[99.05] %”. The “Purity by HPLC (%) chemical” value [4] was 99.46%.
For `COc1cc(-c2cn(C)c(=O)c3cnc(N4CCC4)cc23)cc(OC)c1CN1CCC(CN2CCC3(CC2)CN(c2ccc4c(c2)C(=O)N([C@@H]2CCC(=O)NC2=O)C4)C3)CC1` [crystal pattern FF-A], the XRPD after storage ([2]; 40° C. and 75% RH) was “converted to compound R-D1, crystal pattern FF-B”.
For `COc1cc(-c2cn(C)c(=O)c3cnc(N4CCC4)cc23)cc(OC)c1CN1CCC(CN2CCC3(CC2)CN(c2ccc4c(c2)C(=O)N([C@@H]2CCC(=O)NC2=O)C4)C3)CC1.O=C(O)CC(O)(CC(=O)O)C(=O)O` [citrate-A], the “physical stability (XRPD) upon drying at 50° C. under vacuum and exposure to >95% RH” value [3] was “became amorphous after drying and exposure to RH”.
For `COc1cc(-c2cn(C)c(=O)c3cnc(N4CCC4)cc23)cc(OC)c1CN1CCC(CN2CCC3(CC2)CN(c2ccc4c(c2)C(=O)N([C@H]2CCC(=O)NC2=O)C4)C3)CC1` [S-D1], the “% Degradation” value [5, 6] was 0.002%, the “Area % (R-D1)” value [5, 6] was 0.825% and the “Area % (S-D1)” value [5, 6] was 99.176%. For the same compound, the “% Degradation” value [5, 7] was 0.005%, the “Area % (R-D1)” value [5, 7] was 0.828% and the “Area % (S-D1)” value [5, 7] was 99.172%. The “% Degradation” value [5, 8] was 0.011%, the “Area % (R-D1)” value [5, 8] was 0.834% and the “Area % (S-D1)” value [5, 8] was 99.166%. The “% Degradation” value [5, 9] was 0.016%, the “Area % (R-D1)” value [5, 9] was 0.839% and the “Area % (S-D1)” value [5, 9] was 99.161%. For the same compound, the “% Degradation” value [5, 10] was 18.260%, the “Area % (R-D1)” value [5, 10] was 19.083% and the “Area % (S-D1)” value [5, 10] was 80.917%. For the same compound, the “% Degradation” value [5, 11] was 52.210%, the “Area % (R-D1)” value [5, 11] was 53.033% and the “Area % (S-D1)” value [5, 11] was 46.967%. The “% Degradation” value [5, 12] was 0.098%, the “Area % (R-D1)” value [5, 12] was 0.921% and the “Area % (S-D1)” value [5, 12] was 99.079%. For the same compound, the “% Degradation” value [5, 13] was 0.139%, the “Area % (R-D1)” value [5, 13] was 0.962% and the “Area % (S-D1)” value [5, 13] was 99.038%. For the same compound, the “% Degradation” value [5, 14] was 0.301%, the “Area % (R-D1)” value [5, 14] was 1.124% and the “Area % (S-D1)” value [5, 14] was 98.876%. The “% Degradation” value [5, 15] was 0.482%, the “Area % (R-D1)” value [5, 15] was 1.305% and the “Area % (S-D1)” value [5, 15] was 98.695%. The “% Degradation” value [5, 16] was 0.648%, the “Area % (R-D1)” value [5, 16] was 1.471% and the “Area % (S-D1)” value [5, 16] was 98.529%. The “% Degradation” value [5, 17] was 1.038%, the “Area % (R-D1)” value [5, 17] was 1.861% and the “Area % (S-D1)” value [5, 17] was 98.139%. For the same compound, the “% Degradation” value [5, 18] was 1.407%, the “Area % (R-D1)” value [5, 18] was 2.230% and the “Area % (S-D1)” value [5, 18] was 97.770%. The “% Degradation” value [5, 19] was 2.002%, the “Area % (R-D1)” value [5, 19] was 2.825% and the “Area % (S-D1)” value [5, 19] was 97.175%. The “% Degradation” value [5, 20] was 10.732%, the “Area % (R-D1)” value [5, 20] was 11.555% and the “Area % (S-D1)” value [5, 20] was 88.445%. For the same compound, the “% Degradation” value [5, 21] was 18.922%, the “Area % (R-D1)” value [5, 21] was 19.745% and the “Area % (S-D1)” value [5, 21] was 80.255%. The “% Degradation” value [5, 22] was 27.551%, the “Area % (R-D1)” value [5, 22] was 28.374% and the “Area % (S-D1)” value [5, 22] was 71.626%. The “% Degradation” value [5, 23] was 35.103%, the “Area % (R-D1)” value [5, 23] was 35.926% and the “Area % (S-D1)” value [5, 23] was 64.074%. The “% Degradation” value ([5]; Thermal, 50° C. (solid), 1 d) was 0.178%, the “Area % (R-D1)” value ([5]; Thermal, 50° C. (solid), 1 d) was 1.001% and the “Area % (S-D1)” value ([5]; Thermal, 50° C. (solid), 1 d) was 98.999%. For the same compound, the “% Degradation” value ([5]; Thermal, 50° C. (solid), 3 d) was 0.331%, the “Area % (R-D1)” value ([5]; Thermal, 50° C. (solid), 3 d) was 1.154% and the “Area % (S-D1)” value ([5]; Thermal, 50° C. (solid), 3 d) was 98.847%. For the same compound, the “% Degradation” value ([5]; Thermal, 50° C. (solid), 7 d) was 0.380%, the “Area % (R-D1)” value ([5]; Thermal, 50° C. (solid), 7 d) was 1.203% and the “Area % (S-D1)” value ([5]; Thermal, 50° C. (solid), 7 d) was 98.797%. The “Area % (R-D1)” value ([5]; Unstressed) was 0.823% and the “Area % (S-D1)” value ([5]; Unstressed) was 99.177%.
